The text below walks through data of US20250011331A1 (Nimbus Saturn, Inc., priority 2021, published 2025).

Some results are limits rather than exact numbers.

One may read the IC50 as the midpoint of a concentration-inhibition curve.

The target in the assay is T1, HPK1 (Homo sapiens, UniProt Q92918).
T1 construct: purchased Invitrogen
T1 sequence (Q92918 whole entry): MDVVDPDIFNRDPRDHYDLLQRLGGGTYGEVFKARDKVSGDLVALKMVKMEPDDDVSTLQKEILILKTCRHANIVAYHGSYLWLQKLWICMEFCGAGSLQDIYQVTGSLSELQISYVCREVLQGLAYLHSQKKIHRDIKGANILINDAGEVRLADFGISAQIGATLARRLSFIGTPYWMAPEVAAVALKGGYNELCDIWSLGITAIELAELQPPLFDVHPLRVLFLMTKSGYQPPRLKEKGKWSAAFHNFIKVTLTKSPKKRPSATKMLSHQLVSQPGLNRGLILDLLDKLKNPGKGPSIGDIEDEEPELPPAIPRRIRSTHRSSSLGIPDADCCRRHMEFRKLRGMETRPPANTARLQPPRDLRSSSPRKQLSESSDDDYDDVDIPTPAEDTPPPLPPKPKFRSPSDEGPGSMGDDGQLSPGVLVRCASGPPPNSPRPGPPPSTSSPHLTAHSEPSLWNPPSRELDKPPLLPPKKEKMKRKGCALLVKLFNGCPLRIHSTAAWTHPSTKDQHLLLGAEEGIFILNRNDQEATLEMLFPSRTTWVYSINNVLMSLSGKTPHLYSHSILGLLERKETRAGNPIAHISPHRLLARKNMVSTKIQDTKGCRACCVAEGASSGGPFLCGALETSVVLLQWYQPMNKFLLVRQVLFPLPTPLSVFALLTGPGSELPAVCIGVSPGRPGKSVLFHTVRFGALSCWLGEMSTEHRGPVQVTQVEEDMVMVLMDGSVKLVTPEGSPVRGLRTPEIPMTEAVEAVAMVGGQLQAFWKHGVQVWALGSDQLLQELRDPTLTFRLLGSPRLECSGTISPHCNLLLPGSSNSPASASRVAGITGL
The assay is described as follows: HPK1 biochemical enzyme assay (microfluidic mobility shift). Particulars: 1.5 nM HPK1 (Invitrogen), 1 mM ATP, 30 min preincubation, 60 min at RT, Caliper EZ Reader. How it is done: HPK1 biochemical enzyme assay: HPK1 enzyme inhibition was measured using a microfluidic mobility shift assay. Reactions were performed in a 384-well plate, containing 1.5 nM HPK1 (Invitrogen), in assay buffer (Cama Biosciences; pH 7.4). Test compounds were titrated in ten point curves (top final assay concentration 3 μM), and preincubated with enzyme/substrate mix for 30 min prior to initiation of the reaction by addition of ATP (1 mM final concentration) and substrate (1 μM final concentration; Carna Biosciences) diluted in assay buffer supplemented by MgCl2 (final assay concentration of 5 mM). Following 60 min incubation at RT, the reaction was terminated by addition of 60 μl/well termination buffer (Carna Biosciences) and signal determination using a Caliper EZ Reader (Perkin Elmer, UK).
In the case of `CCN1CCC(c2ccc(Nc3ccc(-c4cnc5cc(F)ccn45)c4c3C(=O)NC4)nc2CN(C)C)CC1=O` (centres unmarked) [Compound I-48, 7-[[6-[(dimethylamino)methyl]-5-(1-ethyl-2-oxo-4-piperidyl)-2-pyridyl]amino]-4-(7-fluoroimidazo[1,2-a]pyridin-3-yl)isoindolin-1-one], the IC50 is at most 0.1 µM.
For `C[C@@H](c1nc(Nc2ccc(-c3cnc4cc(F)ccn34)c3c2C(=O)NC3)ccc1C1CCOCC1)N(C)C` [Compound I-8, (S)-7-((6-(1-(dimethylamino)ethyl)-5-(tetrahydro-2H-pyran-4-yl)pyridin-2-yl)amino)-4-(7-fluoroimidazo[1,2-a]pyridin-3-yl)isoindolin-1-one] the value was at most 0.1 µM; for `CN(C)Cc1nc(Nc2ccc(-c3cnc4cc(F)ccn34)c3c2C(=O)NC3)ccc1[C@H]1COCCO1` (single isomer, unassigned) [Compound I-14], at most 0.1 µM; for `CN(C)Cc1nc(Nc2ccc(-c3cnc4cc(F)ccn34)c3c2C(=O)NC3)ccc1C(C)(C)N1CCOCC1=O` [Compound I-25], at most 0.1 µM.
On to `Cc1cncc2ncc(-c3ccc(Nc4ccc([C@@H]5CCOC5)c(CN(C)C)n4)c4c3CNC4=O)n12` (single isomer, unassigned) [Compound I-27], for which the IC50 was at most 0.1 µM.
As to `CN(C)Cc1nc(Nc2ccc(-c3cnc4cc(F)ccn34)c3c2C(=O)NC3)ccc1[C@@]1(C)CCCO1` (single isomer, unassigned) [Compound I-5], the IC50 was at most 0.1 µM.
For the compound `CC(Oc1ccc(Nc2ccc(-c3cnc4cnccn34)c3c2C(=O)NC3)nc1CN(C)C)C1CC(F)(F)C1` (centres unmarked) [Compound I-49, 7-[[5-[1-(3,3-difluorocyclobutyl)ethoxy]-6-[(dimethylamino)methyl]-2-pyridyl]amino]-4-imidazo[1,2-a]pyrazin-3-yl-isoindolin-1-one], the IC50 is at most 0.1 µM.
For `C[C@H](OC1CCC1)c1ccc(Nc2ccc(-c3cnc4cnccn34)c3c2C(=O)NC3)nc1CN(C)C` [Compound I-30] the value was at most 0.1 µM.
For the compound `CN(C)Cc1nc(Nc2ccc(-c3cnc4cc(C#N)ccn34)c3c2C(=O)NC3)ccc1C1CCOC1` (single isomer, unassigned) [Compound I-38, 3-(7-((6-((dimethylamino)methyl)-5-(tetrahydrofuran-3-yl)pyridin-2-yl)amino)-1-oxoisoindolin-4-yl)imidazo[1,2-a]pyridine-7-carbonitrile], the IC50 is at most 0.1 µM.
As to `CN(C)Cc1nc(Nc2ccc(-c3cnc4cc(F)ccn34)c3c2C(=O)NC3)ccc1OC1CC2(COC2)C1` [Compound I-40, 7-((5-((2-oxaspiro[3.3]heptan-6-yl)oxy)-6-((dimethylamino)methyl)pyridin-2-yl)amino)-4-(7-fluoroimidazo[1,2-a]pyridin-3-yl)isoindolin-1-one], the IC50 was at most 0.1 µM.
For `CC(c1ccc(Nc2ccc(-c3cnc4cnccn34)c3c2C(=O)NC3)nc1CN(C)C)C1CCOCC1` (centres unmarked) [Compound I-35] the value was at most 0.1 µM; for `C[C@H](OC[C@H]1COCCO1)c1ccc(Nc2ccc(-c3cnc4cc(F)ccn34)c3c2C(=O)NC3)nc1CN(C)C` (single isomer, unassigned) [Compound I-33], at most 0.1 µM; for `C[C@H](O)c1ccc(Nc2ccc(-c3cnc4cc(F)ccn34)c3c2C(=O)NC3)nc1CN(C)C` [Compound I-10, (S)-7-((6-((dimethylamino)methyl)-5-(1-hydroxyethyl)pyridin-2-yl)amino)-4-(7-fluoroimidazo[1,2-a]pyridin-3-yl)isoindolin-1-one], at most 0.1 µM.
Take `CN(C)Cc1nc(Nc2ccc(-c3cnc4cc(F)ccn34)c3c2C(=O)NC3)ccc1[C@@H]1CC[C@H](O)C1` [Compound I-2, 7-((6-((dimethylamino)methyl)-5-((1R,3S)-3-hydroxycyclopentyl)pyridin-2-yl)amino)-4-(7-fluoroimidazo[1,2-a]pyridin-3-yl)isoindolin-1-one]: the IC50 was at most 0.1 µM.
For `CN(C)Cc1nc(Nc2ccc(-c3cnc4cc(F)ccn34)c3c2C(=O)NC3)ccc1[C@H]1CC[C@@H](O)C1` [Compound I-1, 7-((6-((dimethylamino)methyl)-5-((1S,3R)-3-hydroxycyclopentyl)pyridin-2-yl)amino)-4-(7-fluoroimidazo[1,2-a]pyridin-3-yl)isoindolin-1-one] the value was at most 0.1 µM.
The value for `CO[C@H]1C[C@H](Oc2ccc(Nc3ccc(-c4cnc5cc(F)ccn45)c4c3C(=O)NC4)nc2CN(C)C)C1` [Compound I-19] was at most 0.1 µM; that for `CN(C)Cc1nc(Nc2ccc(-c3cnc4cc(F)ccn34)c3c2C(=O)NC3)ccc1[C@H]1CC[C@H](O)C1` [Compound I-3, 7-((6-((dimethylamino)methyl)-5-((1S,3S)-3-hydroxycyclopentyl)pyridin-2-yl)amino)-4-(7-fluoroimidazo[1,2-a]pyridin-3-yl)isoindolin-1-one] was at most 0.1 µM; that for `COCC1CC(c2ccc(Nc3ccc(-c4cnc5cc(F)ccn45)c4c3C(=O)NC4)nc2CN(C)C)CCO1` (centres unmarked) [Compound I-32] was at most 0.1 µM.
With `COC1CN(Cc2nc(Nc3ccc(-c4cnc5cnccn45)c4c3C(=O)NC4)ccc2C2CCOC2)C1` (centres unmarked) [Compound I-42, 4-imidazo[1,2-a]pyrazin-3-yl-7-[[6-[(3-methoxyazetidin-1-yl)methyl]-5-tetrahydrofuran-3-yl-2-pyridyl]amino]isoindolin-1-one], the IC50 is at most 0.1 µM.
The value for `CO[C@H]1CCN(Cc2nc(Nc3ccc(-c4cnc5cc(F)ccn45)c4c3C(=O)NC4)ccc2C2CCN(C)C(=O)C2)C1` (stereo partly drawn) [Compound I-43, 4-(7-fluoroimidazo[1,2-a]pyridin-3-yl)-7-[[6-[[(3S)-3-methoxypyrrolidin-1-yl]methyl]-5-(1-methyl-2-oxo-4-piperidyl)-2-pyridyl]amino]isoindolin-1-one] was at most 0.1 µM.
For `COC1CN(Cc2nc(Nc3ccc(-c4cnc5cnccn45)c4c3C(=O)NC4)ccc2C2CCOC2)C1` (centres unmarked) [Compound I-41, 4-imidazo[1,2-a]pyrazin-3-yl-7-[[6-[(3-methoxyazetidin-1-yl)methyl]-5-tetrahydrofuran-3-yl-2-pyridyl]amino]isoindolin-1-one] the value was above 1 µM.
Regarding `CN(C)Cc1nc(Nc2ccc(-c3cnc4cc(F)ccn34)c3c2C(=O)NC3)ccc1C1(C)CCOCC1` [Compound I-4, 7-((6-((dimethylamino)methyl)-5-(4-methyltetrahydro-2H-pyran-4-yl)pyridin-2-yl)amino)-4-(7-fluoroimidazo[1,2-a]pyridin-3-yl)isoindolin-1-one], the IC50 is at most 0.1 µM.
For `CN1CCCC1c1nc(Nc2ccc(-c3cnc4cc(F)ccn34)c3c2C(=O)NC3)ccc1C1CCOC1` (centres unmarked) [Compound I-16] the value was 0.1 to 1 µM; for `CN(C)Cc1nc(Nc2ccc(-c3cnc4cnccn34)c3c2C(=O)NC3)ccc1OCC1CCC(F)(F)CC1` [Compound I-11], at most 0.1 µM; for `C[C@@H](OC[C@H]1COCCO1)c1ccc(Nc2ccc(-c3cnc4cc(F)ccn34)c3c2C(=O)NC3)nc1CN(C)C` (single isomer, unassigned) [Compound I-34], at most 0.1 µM.
The value for `CN1CC[C@H](c2ccc(Nc3ccc(-c4cnc5cc(F)ccn45)c4c3C(=O)NC4)nc2)C1=O` [Compound I-53, (R)-4-(7-fluoroimidazo[1,2-a]pyridin-3-yl)-7-((5-(1-methyl-2-oxopyrrolidin-3-yl)pyridin-2-yl)amino)isoindolin-1-one] was at most 0.1 µM.
